Experiment [1] has as its target T1, Nuclear receptor ROR-gamma (Homo sapiens, UniProt P51449).
T1 sequence (P51449 whole entry): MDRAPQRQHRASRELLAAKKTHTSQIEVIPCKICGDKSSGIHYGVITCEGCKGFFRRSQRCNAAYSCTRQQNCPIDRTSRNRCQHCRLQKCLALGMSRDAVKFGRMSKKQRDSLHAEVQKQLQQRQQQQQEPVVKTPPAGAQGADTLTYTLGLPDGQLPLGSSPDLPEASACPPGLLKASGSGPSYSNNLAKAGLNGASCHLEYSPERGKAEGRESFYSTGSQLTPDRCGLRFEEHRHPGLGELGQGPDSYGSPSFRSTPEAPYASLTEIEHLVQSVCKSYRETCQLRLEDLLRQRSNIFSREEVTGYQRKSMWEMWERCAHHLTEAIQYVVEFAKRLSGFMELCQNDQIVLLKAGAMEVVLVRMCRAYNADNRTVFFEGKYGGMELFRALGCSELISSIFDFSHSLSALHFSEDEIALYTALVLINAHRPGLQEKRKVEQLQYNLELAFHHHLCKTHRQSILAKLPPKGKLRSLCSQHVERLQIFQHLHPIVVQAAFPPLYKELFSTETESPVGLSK
Description: Inverse agonist activity at human RoRc-LBD expressed in cells assessed as SRC1 to 2 coactivator peptide recruitment. It is filed as functional, cell-based.

Experiment [2] has as its target T1, Nuclear receptor ROR-gamma. Description: Inverse agonist activity at human RoRc-LBD fusion protein with GST expressed in […] cells assessed as SRC1 coactivator peptide recruitment. The experiment is classed as functional, cell-based.
Experiment [3] has as its target T1, Nuclear receptor ROR-gamma. Description: Agonist activity at RoRc-LBD (unknown origin) expressed in Drosophilla S2 cells assessed as transcriptional activity by GAL4 reporter assay. The experiment is classed as functional, cell-based.
The target in experiment [4] is T2, Nuclear receptor ROR-gamma (Mus musculus, UniProt P51450).
T2 sequence (P51450 whole entry): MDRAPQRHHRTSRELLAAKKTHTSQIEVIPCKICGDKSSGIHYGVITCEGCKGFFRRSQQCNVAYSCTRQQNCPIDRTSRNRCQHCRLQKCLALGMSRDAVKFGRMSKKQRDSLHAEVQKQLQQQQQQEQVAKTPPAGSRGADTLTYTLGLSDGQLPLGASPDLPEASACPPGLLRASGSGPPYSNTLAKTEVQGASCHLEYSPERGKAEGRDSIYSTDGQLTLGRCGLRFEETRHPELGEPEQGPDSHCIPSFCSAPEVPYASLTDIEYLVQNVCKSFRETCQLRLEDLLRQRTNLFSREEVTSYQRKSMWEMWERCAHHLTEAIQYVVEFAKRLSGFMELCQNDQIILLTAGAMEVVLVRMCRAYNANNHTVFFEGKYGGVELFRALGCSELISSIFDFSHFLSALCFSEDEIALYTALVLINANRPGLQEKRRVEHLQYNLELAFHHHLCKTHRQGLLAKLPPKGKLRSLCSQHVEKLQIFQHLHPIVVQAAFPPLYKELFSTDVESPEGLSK
Nature of the experiment: Activity at RoRc in mouse CD4+ T cells assessed as inhibition of IL-17 production. It is filed as cell-based, T-cell.

Experiment [5] deals with T1, Nuclear receptor ROR-gamma. Description: Inverse agonist activity at human RoRc-LBD expressed in cells assessed as TRAP-220 coactivator peptide recruitment. The experiment is classed as functional, cell-based.
In experiment [6] the target is T1, Nuclear receptor ROR-gamma. Description: Agonist activity at human RoRc-LBD expressed in CHO cells assessed as transcriptional activity by GAL4 reporter assay. The experiment is classed as functional, cell-based. Background: A reporter such as luciferase makes a cellular process visible.
Experiment [7] addresses T1, Nuclear receptor ROR-gamma. Description: Agonist activity at RoRc-LBD (unknown origin) expressed in HEK293 cells assessed as transcriptional activity by GAL4 reporter assay. It is filed as functional, cell-based.
Experiment [8] addresses T1, Nuclear receptor ROR-gamma. Description: Inverse agonist activity at human RoRc in human skin model assessed as suppression of IL-17A level relative to control. The experiment is classed as functional.
Experiment [9] concerns the target T1, Nuclear receptor ROR-gamma. Description: Inverse agonist activity at human RoRc in human skin model assessed as suppression of IL-17F level relative to control. The experiment is classed as functional.
The target in experiment [10] is T1, Nuclear receptor ROR-gamma. Description: Agonist activity at human RoRc-LBD in human PBMC cells assessed as inhibition of IL-17A production by luciferase assay. The experiment is classed as functional, cell-based.
For experiment [11], the target named is T3, Nuclear receptor ROR-gamma (Mus musculus) (UniProt P51450).
T3 sequence (whole entry): T2 sequence (P51450 whole entry)
Description: Activity at RoRc in mouse CD4+ T cells assessed as inhibition of IL-17 production at 10 uM. It is filed as cell-based. The settings on record: T-cell.

For experiment [12], the target named is T1, Nuclear receptor ROR-gamma. Nature of the experiment: Activity at human RoRc in human Jurkat cells assessed as inhibition of IL-17 promoter. The experiment is classed as functional, cell-based.

SMILES strings stand for the structures. Where only a bound is given, the exact number is not on record here.

We go through 24 compounds from ChEMBL document CHEMBL3351629, “Modulators of the nuclear receptor retinoic acid receptor-related orphan receptor-γ (RORγ or RORc)” (J Med Chem, 2014).

By IC50 is commonly meant the concentration at which inhibition is half-maximal. Take `Cc1cnc(C(CCC(C)C)NC(=O)Cc2ccc3oc(C(O)c4c(C)noc4C)cc3c2)c(C)c1` (configuration not stated): in [1], the IC50 turned out to be 1 nM. A word on the EC50: it is the concentration at which the effect is half-maximal. `COc1ccccc1S(=O)(=O)N1Cc2ccccc2COCC1Cc1ccccc1` (configuration not stated): the EC50 in experiment [2] is less than 500 nM. With `C[C@H]1O[C@@H](O[C@H]2[C@@H](O)C[C@H](O[C@H]3[C@@H](O)C[C@H](O[C@H]4CC[C@@]5(C)[C@H](CC[C@@H]6[C@@H]5C[C@@H](O)[C@]5(C)[C@@H](C7=CC(=O)O/C7=C\c7ccccc7O)CC[C@]65O)C4)O[C@@H]3C)O[C@@H]2C)C[C@H](O)[C@@H]1O`, in [3], the EC50 is 1000 nM. For the compound `CN(C(=O)c1c(F)cccc1Cl)c1ccc(-c2cc(C(N)=O)ccc2Cl)cc1O[C@@H]1C[C@@H]2C[C@@H]2C1`, the EC50 in experiment [4] and in experiment [5] was less than 100 nM each time. As for `Cc1ccc(NC(=O)C[C@H](CCC(=O)O)c2nnn([C@H]3C[C@@H](CC(C)(C)C)C3)c2C(F)(F)F)c(C)c1`, the EC50 in [6] was 53 nM. With `O=S(=O)(c1ccccc1OC(F)(F)F)N1Cc2cncnc2-n2ccnc2[C@H]1Cc1ccccc1`, the EC50 in [7] and in [2] was less than 500 nM in each case.

`CC(=O)Nc1ccc2c(c1)CCCN2Cc1ccc(C(O)(C(F)(F)F)C(F)(F)F)cc1`: the EC50 in [8] and in experiment [9] was less than 10000 nM in each case. Take `[2H]C([2H])([2H])N(C(=O)c1c(F)cccc1Cl)c1ccc(-c2cc(C(=O)NCC(C)(C)O)ccc2Cl)cc1N(C([2H])([2H])C([2H])([2H])[2H])C([2H])([2H])C([2H])([2H])[2H]`: the EC50 in experiment [4] and in experiment [5] was less than 100 nM throughout.

`Cc1c(S(N)(=O)=O)cc(-c2cn(S(=O)(=O)N3CCCCC3)c3ccccc23)n1CC1CCCCC1`: the EC50 in [7] and in experiment [2] was less than 500 nM in each case. Turning to `Cc1c(S(=O)(=O)NCCO)cc(-c2cc(C(C)(C)C)cc(C(C)(C)C)c2)n1CC1CCCCC1`, the EC50 in experiment [7] and in [2] was less than 500 nM in each case. Consider `Cc1noc(C)c1COc1ccc(S(=O)(=O)N(CC(C)C)c2ccc(Cl)cc2)cc1`, for which the EC50 in [10] was less than 1000 nM; in experiment [1] it was less than 16 nM. As usually defined, the inhibition is the change of the read-out against control, counted positive when it falls. As to `CCn1c2ccccc2c2cc(NC(=O)CC(C)(O)CCOc3ccc(C#N)c(Cl)c3)ccc21` (configuration not stated), the inhibition in experiment [11] was 96%. Consider `CC(C)c1ccc(N(C(C)C(C)C)S(=O)(=O)c2ccc(OCC3CCOCC3)cc2)nc1` (configuration not stated), for which the EC50 in experiment [2] was less than 32 nM; in [10], less than 1000 nM. Consider `Cc1ccc(C(NC(=O)Cc2ccc(OCC(O)c3cccnc3C)cc2)c2ccccc2)c(C)c1` (configuration not stated), for which the IC50 in experiment [1] came out at 1 nM. Take `CCS(=O)(=O)c1ccc(CC(=O)Nc2cc(-c3cccc(Cl)c3)c(C(=O)c3ccccc3Cl)s2)cc1`: the EC50 in experiment [2] was 6 nM; in experiment [12] it was 25 nM. Turning to `Cc1ccc(NC(=O)C[C@H](CC(=O)O)c2noc([C@H]3C[C@@H](CC(C)C)C3)c2C2CC2)c(Cl)c1`, the EC50 in [6] was 320 nM. As to `CO[C@@H]1Cc2ccccc2CN(S(=O)(=O)c2cccc3cccnc23)[C@@H]1Cc1ccccc1`, the EC50 in experiment [7] and in experiment [2] was less than 500 nM each time.

For the compound `Cc1ccc(N(CC(C)C)S(=O)(=O)c2ccc(OCc3ccncc3)cc2)c(C)c1`, in experiment [10], the EC50 came to 316 nM. Moreover, the IC50 in experiment [1] was less than 16 nM. Regarding `OC(c1ccc(CN2CCCc3cc(-c4cn[nH]c4)ccc32)cc1)(C(F)(F)F)C(F)(F)F`, the EC50 in [8] and in [9] was less than 10000 nM in each case. Take `O=S(=O)(c1cc(F)ccc1OC(F)(F)F)N1Cc2nccnc2-n2ccnc2[C@H]1Cc1ccccc1`: the EC50 in experiment [7] and in experiment [2] was less than 500 nM in each case.

With `Cc1ccc(NC(=O)C[C@H](CCC(=O)O)c2noc([C@H]3C[C@@H](CC(C)(C)C)C3)c2C2CC2)c(Cl)c1`, the EC50 in [6] worked out at 2300 nM. For the compound `COC(=O)[C@H]1CC[C@]2(O)[C@@H]3CC[C@@H]4C[C@@H](O[C@H]5C[C@H](O)[C@H](O[C@H]6C[C@H](O)[C@H](O[C@H]7C[C@H](O)[C@H](O)[C@@H](C)O7)[C@@H](C)O6)[C@@H](C)O5)CC[C@]4(C)[C@H]3C[C@@H](O)[C@]12C`, the EC50 in experiment [3] amounted to 1000 nM. Take `Cc1ccc(C(NC(=O)Cc2ccc3oc(C(O)c4c(C)noc4C)cc3c2)c2ccccc2)c(C)c1` (configuration not stated): in [1], the IC50 was 33 nM. With `O=C(O)c1ccc(-c2nn(C(=O)c3c(Cl)cccc3C(F)(F)F)c3cc(C(=O)NCCO)ccc23)cc1`, the EC50 in experiment [2] was less than 50 nM.
